This note sets out measurements from patent US4623639A (Hoffmann-La Roche Inc., priority 1983, dated 1986).

pIC50: −log10 of the molar value. Where a name gives a salt, the structure may show the parent alone.

Data set [1] concerns the target T1, Human granulocyte elastase (Homo sapiens, UniProt P08246).
T1 sequence (P08246 30-267): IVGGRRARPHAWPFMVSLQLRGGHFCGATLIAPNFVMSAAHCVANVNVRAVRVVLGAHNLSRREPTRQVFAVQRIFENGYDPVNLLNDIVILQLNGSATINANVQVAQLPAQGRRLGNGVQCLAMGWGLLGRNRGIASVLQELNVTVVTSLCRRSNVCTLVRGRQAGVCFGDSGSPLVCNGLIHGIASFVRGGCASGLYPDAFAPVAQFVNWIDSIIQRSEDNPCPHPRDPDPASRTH
The data set can be described thus: Assay of the inhibition of human granulocyte elastase (succinyl (Ala)3-p-nitroanilide cleavage). It is filed as biochemical. Conditions: succinyl (Ala)3-p-nitroanilide substrate, 0.2M Tris HCl pH 8.0, 37° C., 1 hour; read-out: IC50 (concentration required to give 50% inhibition). The method, then:
ASSAY OF THE INHIBITION OF HUMAN GRANULOCYTE ELASTASE TEST METHOD
This assay is based on the method of J. Bieth, B. Spiess and C. G. Wermuth, Biochem. 11, (1974), 350.
Succinyl (Ala)3 -p-nitroanilide (20 μl of a 125 mM solution in N-methylpyrrolidone) was diluted in buffer (3 ml, 0.2M Tris HCl, pH 8.0) and warmed to 37° C. Human granulocyte elastase (4 μg in 20 μl of buffer) was added to initiate the reaction, which was terminated after 1 hour at 37° C. by the addition of glacial acetic acid (100 μl). The p-nitroaniline released was determined by measuring the extinction of the solution at 410 nm by means of a spectrophotometer. The compounds of the present invention, in 50 μl of methanol, were added to the buffered substrate prior to the addition of the human granulocyte elastase and the substrate cleavage rate was compared with solvent controls. The concentration of compound of the present invention required to give 50% inhibition was determined.

Data set [2] relates to male mice. Nature of the data set: Maximum tolerated dose test (no gross behavioural effects). It is filed as in vivo. Conditions: observed 6 hours and 24 hours after administration. How it is done:
MAXIMUM TOLERATED DOSE TEST TEST METHOD
This test determines the maximum acute dose of a compound of this invention which causes no gross behavioural effects.
Groups of 3 male mice are administered 400 mg/kg and 100 mg/kg of a compound of this invention subcutaneously, intravenously or intraperitoneally. The mice are observed periodically during the 6 hours after the administration and 24 hours after the administration. Evidence of stimulation, sedation, loss of righting reflex, convulsions, tremor, death and other gross effects are noted. If effects are observed, the compound is tested at lower dosages in order to determine the no gross effect level. The results are expressed as the maximum dose administered in mg/kg which causes no gross behavioural effects.

On to `CC(C)CNC(=O)[C@@H]1CCCN1C(=O)[C@H](CCCCNC(=O)CCC(=O)O)NCCC12CC3CC(CC(C3)C1)C2` [N^α -(1-adamantylethyl)-N^ε -succinyl-L-lysyl-L-proline isobutylamide], for which the pIC50 in data set [1] is 5.35. In addition, the “dosage at which no behavioural effects were observed” value in data set [2] (intraperitoneally) is given as 50 mg/kg.
For `CC(C)[C@@H](C=O)NC(=O)[C@@H]1CCCN1C(=O)[C@H](CCCCNC(=O)c1ccccc1C(=O)O)NS(=O)(=O)C12CC3CC(CC(C3)C1)C2` [N^α -(1-adamantylsulphonyl)-N^ε -(2-carboxybenzoyl)-L-lysyl-L-prolylvalinal], the pIC50 in data set [1] is 7.05.
For the molecule `CC(C)[C@@H](C=O)NC(=O)[C@H](C)NC(=O)[C@H](CCCCNC(=O)c1ccc(C(=O)O)cc1)NS(=O)(=O)C12CC3CC(CC(C3)C1)C2` [N^α -(1-adamantylsulphonyl)-N^ε -(4-carboxybenzoyl)-L-lysyl-L-alanyl-L-valinal], the pIC50 in data set [1] is 7.30. The “dosage at which no behavioural effects were observed” value in data set [2] (intraperitoneally) amounted to 100 mg/kg; in data set [2] (intravenously) it was 100 mg/kg; in data set [2] (subcutaneously) it was 400 mg/kg.
As for `CC(C)[C@@H](C=O)NC(=O)[C@@H]1CCCN1C(=O)[C@H](CCCCNC(=O)c1ccc(C(=O)O)cc1)NS(=O)(=O)C12CC3CC(CC(C3)C1)C2` [N^α -(1-adamantylsulphonyl)-N^ε -(4-carboxybenzoyl)-L-lysyl-L-prolyl-L-valinal], in data set [1], the pIC50 is 7.22. In addition, the results for the “dosage at which no behavioural effects were observed” value in data set [2] (intraperitoneally), in data set [2] (intravenously) and in data set [2] (subcutaneously) were 100 mg/kg, 100 mg/kg and 400 mg/kg, respectively.
Turning to `CC(C)[C@@H](C=O)NC(=O)[C@@H]1CCCN1C(=O)[C@H](CCCCNC(=O)CCCCC(=O)O)NS(=O)(=O)C12CC3CC(CC(C3)C1)C2` [N^α -(1-adamantylsulphonyl)-N^ε -adipoyl-L-lysyl-L-prolylvalinal], the pIC50 in data set [1] was 7.10.
Take `CC(C)[C@@H](C=O)NC(=O)[C@H](C)NC(=O)[C@H](CCCCNC(=O)CCC(=O)O)NS(=O)(=O)C12CC3CC(CC(C3)C1)C2` [N^α -(1-adamantylsulphonyl)-N^ε -succinyl-L-lysyl-L-alanylvalinal]: the pIC50 in data set [1] is 6.92.
On to `CC(C)[C@@H](C=O)NC(=O)[C@@H]1CCCN1C(=O)[C@H](CCCCNC(=O)CCC(=O)O)NS(=O)(=O)C12CC3CC(CC(C3)C1)C2` [N^α -(1-adamantylsulphonyl)-N^ε -succinyl-L-lysyl-L-prolyl-L-valinal], for which the pIC50 in data set [1] was 7.10. The “dosage at which no behavioural effects were observed” value in data set [2] (intravenously) worked out at 100 mg/kg; in data set [2] (subcutaneously), 400 mg/kg.
Consider `CC(C)CNC(=O)[C@@H]1CCCN1C(=O)[C@H](CCCCNC(=O)CC[C@H](N)C(=O)O)NCCC1CCC2CC1C2(C)C` (some centres unmarked) [dihydrobromide], for which the pIC50 in data set [1] is 4.80.
